Source: PubChem BioAssay AID179 (DTP/NCI, 2004)
The source made the active and inactive calls.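 Rule for the calls: active = compounds giving half or more protection of infected cells from virus-caused growth loss, again on retest; inactive = the rest.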

Test system: CEM cells HIV-1 protection, formazan growth assay
Test: NCI AIDS Antiviral Assay
Conditions: for IC50: measured here: growth of uninfected CEM cells
Summary of the method: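 Five concentrations of each compound were applied to infected and uninfected human CEM cells. Protection from HIV-1 was judged from growth measured with a soluble formazan assay.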

Structure (SMILES) | outcome | EC50 | IC50
CNC1C(OC2C(OC3C(O)C(O)C(O)C(O)C3O)OC(C)C2(O)CO)OC(CO)C(O)C1O (configuration not stated) (tested in a mixture with another compound) | inactive | – | –
Cc1ccc(S(=O)(=O)N2CCSCCN(S(=O)(=O)c3ccc(C)cc3)CCN(S(=O)(=O)c3ccc(C)cc3)CC2)cc1 | – | > 4.17 µM | > 4.17 µM
CC12Nc3ccccc3C1=C(c1ccccc1)CC1C(=O)OC(=O)C12 (configuration not stated) | – | > 15.8 µM | > 15.8 µM
COc1ccc(C(=O)C2CC3(CCC2(O)c2ccc(OC)cc2)CC(=O)Nc2ccccc2C3=O)cc1 (configuration not stated) | – | > 200 µM | 72.4 µM
O=S(=O)(c1ccc(F)cc1)c1ccc(F)cc1 | – | > 200 µM | > 200 µM
Cc1c(-c2ccc(N)cc2)c(=O)oc2cc(O)ccc12 | – | > 200 µM | > 200 µM
N#CC(C#N)=C(N)/C(C#N)=C\c1ccnc2ccccc12 | – | > 26.3 µM | 4.07 µM
COc1ccc(N/N=C(\CCN(C)C)c2ccccc2)cc1 | inactive | – | –
Cc1ccc(SSCCCCS(=O)O)cc1 | inactive | – | –
O=C(NCCN1CCOCC1)c1cn2c(ccc3sc4ccccc4c(=O)c32)n1 | – | > 200 µM | 3.55 µM
O=c1ccn(C2CC(CO)C(CO)C2)c(=O)[nH]1 (configuration not stated) | – | > 105 µM | > 105 µM
CC(=O)NC1=C(C)C(=O)c2c(nc3n2CCC3OC(=O)CCl)C1=O (configuration not stated) | – | > 200 µM | 1.48 µM
CON(C)C(=O)CNC(=O)OCC1c2ccccc2-c2ccccc21 | – | > 200 µM | > 100 µM
O=C1C(N=Nc2ccc(Br)cc2)Sc2nc3ccccc3n21 (configuration not stated) | – | > 200 µM | > 200 µM
O=C(NCCNCCNCCNC(=O)c1cc(-c2ccccc2)nc2ccccc12)c1cc(-c2ccccc2)nc2ccccc12 | – | > 20 µM | 3.31 µM
NCCOB(c1ccccc1)c1ccccc1 | – | > 200 µM | 38.9 µM
ClC1C(Cl)C2CC1C1CC3OC3C21 (configuration not stated) | – | > 200 µM | > 200 µM
CC12CCCCC1C(=O)C2(Cl)Cl (configuration not stated) | inactive | – | –
Nc1nc(Cl)cc(NCC2(CO)CC(OCc3ccccc3)C2)n1 (configuration not stated) | – | > 200 µM | 6.03 µM
CC(C)(C)COC(=O)NC1CCC2CCCCC2C1 (configuration not stated) | – | > 200 µM | > 200 µM
CC(=O)Oc1ccc(/C=C/C(=O)O[C@@H](C)[C@H](C)OC(=O)/C=C/c2ccc(OC(C)=O)c(OC(C)=O)c2)cc1OC(C)=O | – | > 100 µM | 5.62 µM
CCOC(=O)C1=CNC(C(=O)OCC)C1c1cccn1-c1ccccc1 (configuration not stated) | – | > 200 µM | 36.3 µM
CCCCCOCC(O)CO (configuration not stated) | inactive | – | –

Structure (SMILES) | outcome | EC50 | IC50
[Cl][Cu][Cl] | – | > 200 µM | 182 µM
NC(=O)N/N=C/C(/C=N/NC(N)=O)[N+](=O)[O-] | – | > 112 µM | > 112 µM
CN(C)CCNC(=O)Cn1cc([N+](=O)[O-])c(=O)c2ccccc21 | – | > 200 µM | > 200 µM
C#CCCOC1(OC)N=NC(C)(C)O1 (configuration not stated) | – | > 200 µM | > 200 µM
Fc1ccc(NC2=NCCN=C(Nc3ccc(F)cc3)SS2)cc1 | – | > 200 µM | 24.5 µM
CN(C)COC(=S)[S-].CN(C)COC(=S)[S-].CN(C)COC(=S)[S-].[Fe+6] | – | > 2 µM | 0.363 µM
CCOC(=O)Nc1sc2c(c1C#N)CCCC2 | – | 41.7 µM | 105 µM
C=C[Si](C)(C)COC(=O)/C(C#N)=C/C=C/c1ccccc1 | – | > 9.12 µM | > 9.12 µM
CCc1cccc2c3c([nH]c12)C(CC)(CC(=O)O)OCC3 (configuration not stated) | – | > 200 µM | > 200 µM
COc1c(NC(C)=O)cc(C)cc1NC(C)=O | inactive | – | –
Cc1ccc(-n2c(=S)[nH]c3ccc(C)cc3c2=O)cc1 | – | > 25.7 µM | > 25.7 µM
OCCN(CCO)c1cccc(N(CCO)CCO)c1 | inactive | – | –
C1#CCSCC#CCSC1 | – | > 42.7 µM | > 42.7 µM
CC(C)CCCC(C)[C@H]1CCC2C3CC[C@H]4C[C@@H](CCCP(=O)(c5ccccc5)c5ccccc5)CC[C@]4(C)C3CC[C@@]21C (some centres not stated) | – | > 50.1 µM | > 50.1 µM
COC1/C=C/OC2(C)Oc3c(C)c(O)c4c(O)c(c(/C=N/N(C)c5nc6c(N)ncnc6n5C5OC(CO)C(O)C5O)c(O)c4c3C2=O)NC(=O)C(C)=C/C=C/C(C)C(O)C(C)C(O)C(C)C(OC(C)=O)C1C (configuration not stated) | – | > 200 µM | 112 µM
Cc1c(Cl)ccc2[s+]snc12 | inactive | – | –
COC(=O)[C@]12CSC[C@H]1C[C@H](c1ccc(N(C)C)cc1)N2 | – | > 200 µM | > 200 µM
COC(Cc1ccccc1)NC(=O)[C@@]12CCCC[C@@H]1C=Cc1ccccc12 (some centres not stated) | – | > 55 µM | 22.9 µM
COc1ccc(C(=O)/C=C/c2ccncc2)cc1OC | – | > 200 µM | 3.02 µM
N/C(=N/N=C/c1cccc([N+](=O)[O-])c1)NO | inactive | – | –
C1CCN2CC3CONC3C2C1 (configuration not stated) | – | > 1480 µM | > 1480 µM
COC(=O)C(Cc1c[nH]c2ccccc12)NC(=O)C(Cc1c[nH]c2ccccc12)NC(=O)OCc1ccccc1 (configuration not stated) | inactive | – | –
O=C(NCCCCNCCCNC(=O)c1ccccc1)c1ccccc1 | – | > 200 µM | > 200 µM

Structure (SMILES) | outcome | EC50 | IC50
C1=Nc2ccccc2Cn2nncc21 | – | > 1350 µM | 21.9 µM
CCNC(=O)Cc1nc2c(N)ncnc2n1C1OC(CO)C(O)C1O (configuration not stated) | – | > 200 µM | 81.3 µM
CCOC(=O)/C(=C\c1ccc(F)cc1)[Se]c1ccccc1 | – | > 38.9 µM | > 38.9 µM
CCCCCCCCCCCCCC(=O)OCC1OC(n2cc(C)c(=O)[nH]c2=O)CC1O (configuration not stated) | – | > 200 µM | 11.7 µM
O=c1[nH]nc(Cc2ccccc2)n1CCCl | – | > 200 µM | > 200 µM
O=C(O)CN(CC(=O)O)Cc1ccn(-c2cccc(-n3ccc(CN(CC(=O)O)CC(=O)O)n3)n2)n1 | – | > 200 µM | > 200 µM
Cc1cc(=O)oc2cc(N(C)C)ccc12 | – | > 67.6 µM | 37.2 µM
O=C1[C@@H](c2ccc(Cl)cc2)[C@H]2CC=C[C@H]2N1O | – | > 355 µM | 61.7 µM
N#C/C(=C\NC(N)=S)c1nc2ccccc2s1 | inactive | – | –
CC(=O)Nc1ccccc1C[P+](c1ccccc1)(c1ccccc1)c1ccccc1 | – | > 200 µM | > 200 µM
CCC1=CCC23C(=O)C=CC(=O)C2(C1)C(=O)c1cccc(OC)c1C3=O (configuration not stated) | – | > 20 µM | 1.05 µM
CC(C)C1=C(O)C2=C(C(=O)C1=O)C1(C)CCCC(C)(C)C1C(O)C2OC=O (configuration not stated) | – | > 200 µM | 10.2 µM
CCOC(=O)c1ccc(CS(=O)c2ccccc2)c([N+](=O)[O-])c1 (configuration not stated) | – | > 204 µM | 3.47 µM
Cc1cc(=O)oc2c(C)c(OCCCOc3ccc4c(C)cc(=O)oc4c3C)ccc12 | – | > 32.4 µM | > 32.4 µM
NC(CSS(=O)(=O)O)=NCCCC1CCCCC1 | – | > 200 µM | 102 µM
O=C1/C(=C/c2cccc([N+](=O)[O-])c2)COc2ccccc21 | – | > 12.9 µM | 1.51 µM
COc1cc(O)cc(O)c1C(=O)CC(Cl)(Cl)Cl | – | > 316 µM | 170 µM
S=C(NNc1nc2ccccc2n2cccc12)Nc1ccc(Br)cn1 | – | > 0.2 µM | 0.0617 µM
O=c1c2cccc3cccc(c4oc5c6cccc7cccc(c(=O)c5c14)c76)c32 | inactive | – | –
NC(CSSCC(N)Cc1ccccc1)Cc1ccccc1 (configuration not stated) | – | > 617 µM | 20.4 µM
COC(=O)C(C(=O)C(=O)Nc1ccc(OC)cc1[N+](=O)[O-])c1nc2cc(C)c(C)cc2[nH]c1=O (configuration not stated) | – | > 15.5 µM | > 15.5 µM
COC(=O)C(CC(=O)Nc1ccc(Cl)c(Cl)c1)C(=O)C(=O)Nc1ccc(Cl)c(Cl)c1 (configuration not stated) | – | > 52.5 µM | > 52.5 µM
Nc1nnc2nc(CC(=O)/C=C/c3ccccc3)c(=O)[nH]n12 | – | > 170 µM | > 170 µM

Structure (SMILES) | outcome | EC50 | IC50
C/C(=N/NC(N)=S)C(CN1CCOCC1)C(C1=C(O)c2ccccc2OC1)c1ccccc1 (configuration not stated) | – | > 37.2 µM | > 37.2 µM
Cc1c(N=Nc2ccc(Cl)cc2)c(-c2ccccc2)n(C2OC(CO)C(O)C(O)C2O)c(=S)c1C#N (configuration not stated) | – | > 200 µM | 37.2 µM
CCn1c(=O)nc2n(-c3ccccc3)c3ccccc3nc-2c1=O | inactive | – | –
O=C(c1ccccc1F)c1c(NCc2ccccc2)c(=O)c1=O | – | 53.7 µM | 102 µM
Cc1cc(C)nc(NS(=O)(=O)c2ccc(NC(=O)c3ccc(Cl)c4c(Nc5ccc(S(=O)(=O)Nc6nc(C)cc(C)n6)cc5)c5ccccc5nc34)cc2)n1 | – | > 45.7 µM | 24.5 µM
C=C1c2[nH]c3c([N+](=O)[O-])c(OC)ccc3c2CCN1C(C)=O | inactive | – | –
CC(N)C(=O)NC(C)C(=O)NC(C)C(=O)NC(C)C(=O)NC(C)C(=O)NC(C)C(=O)O (configuration not stated) | inactive | > 100 µM | > 100 µM
O=C1Oc2ccccc2C(=O)/C1=C/N1C(=O)N/C(=C\c2cccc(O)c2)C1=O | – | > 200 µM | 148 µM
CCOC(=O)/C=C1/Nc2cc(Cl)c(Cl)cc2NC1=O | – | > 9.12 µM | > 9.12 µM
O=P1(Oc2ccccc2)OC[C@H]2S[C@H](c3ccccc3)C[C@H]2O1 (some centres not stated) | – | > 200 µM | > 200 µM
CCOC(=O)Nn1cnnc1C | – | > 200 µM | > 200 µM
CC(C)(C)N=c1n(C(C)(C)C)oc(=O)n1C(C)(C)C | – | > 151 µM | 135 µM
CC(=O)/C(=C/c1ccccc1[N+](=O)[O-])C(=O)c1ccccc1 | – | > 24.5 µM | 2.09 µM
COc1ccc(OC)c(CCc2cc(OC)c(OC)cc2C)c1 | – | > 58.9 µM | 2.82 µM
O=C(CCc1nnc2s/c(=C\c3ccc4c(c3)OCO4)c(=O)n12)Nc1cc(Cl)ccc1Cl | – | 72.4 µM | 513 µM
C=CCCCC(C)(C(=O)OC(C)(C)C)C1=NOC(C)(C)C1 (configuration not stated) | – | > 200 µM | > 200 µM
CNC(=O)OCC1=CC(=O)C(OC)=CC1=O | – | > 200 µM | 10 µM
CS(=O)(=O)Nc1nc2ccccc2c(=O)o1 | – | > 200 µM | > 200 µM
O=C1CSC(=S)N1Cc1ccncc1 | – | > 200 µM | 4.27 µM
O=C1NC2OC(CO)C(O)C2O1 (configuration not stated) | – | > 200 µM | > 200 µM
CO[C@@H]1[C@H](O)c2coc3c2[C@@](C)(c2ccc4c(c2C3=O)CCC4=O)[C@@H]1O | – | > 200 µM | 28.8 µM
